Experimental data from patent US20060247250A1 (TargeGen, Inc., priority 2005, published 2006).

What was measured:
Type in all cases: biochemical
FGFR1 = molecular target: T1, FGFR1 (Homo sapiens, UniProt P11362); assay: FGFR1 kinase assay, residual ATP luminescence; conditions: poly(glu4tyr), 2.5 uM ATP, 60 minutes at 37 C
T1 construct: purchased Panvera/Invitrogen
Description: (§1) The ability of compounds of the present invention to inhibit the activity of three groups of kinases was tested. Kinases tested included the src family (primarily src and yes), the angiogenic growth factors receptors (FGFR1, PDGFRb and VEGFR2) and the ephrin, EphB4. All kinase reactions were conducted in 96-well plates with a final reaction volume of 50 ul.
(§2) FGFR1 and VEGFR2 kinase assays were similarly performed. FGFR1 (76 ng/well, Panvera/Invitrogen) was combined with 12.5 mg/ml poly(glu4tyr) (Sigma) and 2.5 uM ATP. VEGFR2 (14.1 U/well, Cell Signaling/ProQinase) was used with 0.3 mg/ml poly(glu4tyr) and 1.5 uM ATP. Both were incubated for 60 minutes at 37 C, and the residual ATP was measured via luminescence, per the procedure described above.

VEGFR2 = molecular target: T2, VEGFR2 (Homo sapiens, UniProt P35968); assay: VEGFR2 kinase assay, residual ATP luminescence; conditions: VEGFR2, poly(glu4tyr), 1.5 uM ATP, 60 minutes at 37 C; read-out: Vegfr IC50
T2 construct: purchased Cell Signaling/ProQinase
Description: as §1, §2

PDGFRb = molecular target: T3, PDGFRb (Homo sapiens, UniProt P09619); assay: PDGFRb kinase assay, residual ATP luminescence; conditions: PTK2 peptide, 500 nM ATP, 60 minutes at 37 C; read-out: Pdgfrβ IC50
T3 construct: purchased Panvera/Invitrogen
Description: as §1
PDGFRb (0.16 ug/well, Panvera/Invitrogen) 500 nM ATP and the PTK2 peptide (700 uM) were combined with compound and reaction buffer as noted above for src. The reaction was incubated for 60 minutes at 37 C, and the residual ATP concentration was determined using the luciferase-based technique also noted above.

human Yes = molecular target: T4, human Yes (Homo sapiens, UniProt P07947); assay: Yes kinase inhibition, luciferase-based residual ATP (KinaseGlo); conditions: recombinant human Yes, ATP 3 μM, PTK2 substrate, 90 minutes at room temperature
T4 construct: purchased Panvera/Invitrogen
Description: as §1
Recombinant human c-Src or Yes (28 ng/well, Panvera/Invitrogen, Madison Wis.), ATP (3 μM), a tyrosine kinase substrate (PTK2, 250 μM, Promega Corp., Madison Wis.), and test agents (at concentrations ranging from about 1 nM/l to about 100 μM/1), in the presence of Src kinase reaction buffer (Upstate USA, Lake Placid N.Y.). After reacting for about 90 minutes at room temperature, residual ATP was determined using a luciferase-based assay (KinaseGlo, Promega Corp.) as a measure of kinase activity. Data from four wells were then averaged and used to determine IC50 values for the test compounds (Prism software package, GraphPad Software, San Diego Calif.).

EphB4 = molecular target: T5, EphB4 (Homo sapiens, UniProt P54760); assay: EphB4 kinase assay, residual ATP luminescence; conditions: poly(glu4tyr), 6 uM ATP, 60 minutes at 37 C
T5 construct: purchased Upstate
T5 sequence (P54760 16-987): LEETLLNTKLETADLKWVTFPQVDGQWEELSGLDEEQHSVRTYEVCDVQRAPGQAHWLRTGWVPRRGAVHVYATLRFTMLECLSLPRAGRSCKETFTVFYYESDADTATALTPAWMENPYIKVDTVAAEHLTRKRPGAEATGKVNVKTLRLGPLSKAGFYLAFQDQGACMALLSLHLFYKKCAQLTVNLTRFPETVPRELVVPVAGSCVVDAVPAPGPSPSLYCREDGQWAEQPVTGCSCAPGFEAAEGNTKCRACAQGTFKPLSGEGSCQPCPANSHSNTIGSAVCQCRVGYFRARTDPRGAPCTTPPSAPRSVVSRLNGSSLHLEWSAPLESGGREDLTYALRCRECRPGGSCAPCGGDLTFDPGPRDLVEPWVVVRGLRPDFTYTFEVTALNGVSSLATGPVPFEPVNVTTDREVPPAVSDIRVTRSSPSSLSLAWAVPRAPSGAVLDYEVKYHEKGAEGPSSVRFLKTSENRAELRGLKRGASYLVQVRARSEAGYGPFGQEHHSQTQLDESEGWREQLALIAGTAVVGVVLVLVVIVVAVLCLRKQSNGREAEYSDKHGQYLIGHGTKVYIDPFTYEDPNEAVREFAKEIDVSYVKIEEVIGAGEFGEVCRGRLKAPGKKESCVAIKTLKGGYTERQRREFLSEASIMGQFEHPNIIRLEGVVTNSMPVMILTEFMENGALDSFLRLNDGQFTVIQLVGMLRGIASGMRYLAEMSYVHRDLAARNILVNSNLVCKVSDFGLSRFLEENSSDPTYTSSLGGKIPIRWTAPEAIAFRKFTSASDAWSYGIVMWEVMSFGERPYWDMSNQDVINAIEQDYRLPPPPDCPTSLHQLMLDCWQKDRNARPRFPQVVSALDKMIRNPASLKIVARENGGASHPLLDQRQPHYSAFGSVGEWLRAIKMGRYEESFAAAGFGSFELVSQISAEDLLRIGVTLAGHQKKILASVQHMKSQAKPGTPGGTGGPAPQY
Description: as §1
EphB4 kinase activity was similarly measured, using the luciferase-based technique described above. 28.9 mU/well EphB4 (Upstate) was reacted with 1 mg/ml poly(glu4tyr), 6 uM ATP and test reagents. The reaction was incubated for 60 minutes at 37 C and the residual ATP concentration was measured.

T1 sequence (P11362 22-822, species assumed): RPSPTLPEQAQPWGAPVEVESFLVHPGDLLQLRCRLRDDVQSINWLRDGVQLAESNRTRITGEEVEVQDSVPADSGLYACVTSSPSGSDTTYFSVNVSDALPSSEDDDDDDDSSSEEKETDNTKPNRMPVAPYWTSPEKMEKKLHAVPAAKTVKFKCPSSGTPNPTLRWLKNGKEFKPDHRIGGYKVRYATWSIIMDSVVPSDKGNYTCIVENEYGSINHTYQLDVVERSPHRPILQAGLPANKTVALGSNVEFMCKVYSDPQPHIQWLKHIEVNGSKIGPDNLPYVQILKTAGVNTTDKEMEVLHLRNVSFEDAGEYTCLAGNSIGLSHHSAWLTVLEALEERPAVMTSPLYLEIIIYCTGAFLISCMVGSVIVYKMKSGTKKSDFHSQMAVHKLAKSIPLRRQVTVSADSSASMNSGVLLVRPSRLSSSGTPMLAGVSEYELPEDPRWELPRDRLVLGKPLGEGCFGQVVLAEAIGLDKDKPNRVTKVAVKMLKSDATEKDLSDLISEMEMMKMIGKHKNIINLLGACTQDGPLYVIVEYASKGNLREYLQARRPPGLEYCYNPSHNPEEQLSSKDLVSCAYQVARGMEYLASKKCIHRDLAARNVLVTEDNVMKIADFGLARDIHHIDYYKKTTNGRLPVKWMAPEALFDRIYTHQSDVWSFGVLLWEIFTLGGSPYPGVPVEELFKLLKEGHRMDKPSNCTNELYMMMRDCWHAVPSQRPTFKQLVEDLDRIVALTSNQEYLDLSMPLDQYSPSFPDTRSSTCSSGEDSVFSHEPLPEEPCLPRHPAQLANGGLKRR
T2 sequence (P35968 20-1356, species assumed): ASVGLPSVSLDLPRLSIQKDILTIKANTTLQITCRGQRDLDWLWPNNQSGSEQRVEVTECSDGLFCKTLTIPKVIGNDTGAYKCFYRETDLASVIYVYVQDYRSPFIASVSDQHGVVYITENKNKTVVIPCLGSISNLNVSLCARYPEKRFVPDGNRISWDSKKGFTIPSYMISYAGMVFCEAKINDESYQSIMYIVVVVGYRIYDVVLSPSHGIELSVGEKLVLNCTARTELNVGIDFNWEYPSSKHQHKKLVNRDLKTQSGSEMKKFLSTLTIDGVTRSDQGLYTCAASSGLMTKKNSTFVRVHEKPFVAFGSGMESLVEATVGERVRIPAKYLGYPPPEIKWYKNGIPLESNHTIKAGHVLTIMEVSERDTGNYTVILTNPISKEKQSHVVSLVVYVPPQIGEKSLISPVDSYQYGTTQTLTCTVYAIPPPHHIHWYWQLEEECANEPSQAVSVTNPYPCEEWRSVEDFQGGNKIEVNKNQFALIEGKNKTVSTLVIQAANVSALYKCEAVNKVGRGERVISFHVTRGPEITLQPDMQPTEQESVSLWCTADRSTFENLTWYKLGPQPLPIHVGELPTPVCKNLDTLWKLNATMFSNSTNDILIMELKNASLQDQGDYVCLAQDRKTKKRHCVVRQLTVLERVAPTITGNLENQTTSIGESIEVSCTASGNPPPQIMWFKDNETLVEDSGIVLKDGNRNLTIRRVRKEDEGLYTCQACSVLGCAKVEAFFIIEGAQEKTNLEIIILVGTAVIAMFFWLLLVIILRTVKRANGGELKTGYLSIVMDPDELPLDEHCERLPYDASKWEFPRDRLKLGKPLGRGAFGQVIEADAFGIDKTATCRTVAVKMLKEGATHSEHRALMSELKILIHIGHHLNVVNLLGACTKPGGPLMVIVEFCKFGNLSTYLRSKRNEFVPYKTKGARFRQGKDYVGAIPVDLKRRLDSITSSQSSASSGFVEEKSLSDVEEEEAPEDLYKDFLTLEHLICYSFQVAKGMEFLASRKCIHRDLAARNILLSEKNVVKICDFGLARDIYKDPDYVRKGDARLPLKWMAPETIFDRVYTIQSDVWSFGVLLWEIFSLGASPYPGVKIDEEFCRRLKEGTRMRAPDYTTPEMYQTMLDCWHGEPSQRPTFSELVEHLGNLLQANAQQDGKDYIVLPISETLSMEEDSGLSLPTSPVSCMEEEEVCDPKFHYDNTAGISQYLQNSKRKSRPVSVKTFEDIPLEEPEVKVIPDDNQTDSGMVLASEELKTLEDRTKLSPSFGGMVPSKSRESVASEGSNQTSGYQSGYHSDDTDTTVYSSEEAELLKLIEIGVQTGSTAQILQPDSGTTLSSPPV
T4 sequence (P07947 whole entry): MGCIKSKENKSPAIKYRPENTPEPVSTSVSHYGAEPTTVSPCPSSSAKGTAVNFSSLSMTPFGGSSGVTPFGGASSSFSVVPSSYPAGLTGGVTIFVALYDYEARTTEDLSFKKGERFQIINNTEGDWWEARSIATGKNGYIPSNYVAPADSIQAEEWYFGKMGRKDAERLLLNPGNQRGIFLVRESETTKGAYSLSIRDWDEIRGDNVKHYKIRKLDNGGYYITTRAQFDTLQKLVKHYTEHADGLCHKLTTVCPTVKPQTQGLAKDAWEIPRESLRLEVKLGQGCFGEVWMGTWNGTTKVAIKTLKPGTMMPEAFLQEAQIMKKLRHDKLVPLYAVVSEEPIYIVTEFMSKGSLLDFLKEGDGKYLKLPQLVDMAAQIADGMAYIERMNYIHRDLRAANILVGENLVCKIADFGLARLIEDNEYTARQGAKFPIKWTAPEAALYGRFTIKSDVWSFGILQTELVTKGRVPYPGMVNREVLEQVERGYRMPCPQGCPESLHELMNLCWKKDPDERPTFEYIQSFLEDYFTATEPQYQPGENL
T3 sequence (P09619 33-1106, species assumed): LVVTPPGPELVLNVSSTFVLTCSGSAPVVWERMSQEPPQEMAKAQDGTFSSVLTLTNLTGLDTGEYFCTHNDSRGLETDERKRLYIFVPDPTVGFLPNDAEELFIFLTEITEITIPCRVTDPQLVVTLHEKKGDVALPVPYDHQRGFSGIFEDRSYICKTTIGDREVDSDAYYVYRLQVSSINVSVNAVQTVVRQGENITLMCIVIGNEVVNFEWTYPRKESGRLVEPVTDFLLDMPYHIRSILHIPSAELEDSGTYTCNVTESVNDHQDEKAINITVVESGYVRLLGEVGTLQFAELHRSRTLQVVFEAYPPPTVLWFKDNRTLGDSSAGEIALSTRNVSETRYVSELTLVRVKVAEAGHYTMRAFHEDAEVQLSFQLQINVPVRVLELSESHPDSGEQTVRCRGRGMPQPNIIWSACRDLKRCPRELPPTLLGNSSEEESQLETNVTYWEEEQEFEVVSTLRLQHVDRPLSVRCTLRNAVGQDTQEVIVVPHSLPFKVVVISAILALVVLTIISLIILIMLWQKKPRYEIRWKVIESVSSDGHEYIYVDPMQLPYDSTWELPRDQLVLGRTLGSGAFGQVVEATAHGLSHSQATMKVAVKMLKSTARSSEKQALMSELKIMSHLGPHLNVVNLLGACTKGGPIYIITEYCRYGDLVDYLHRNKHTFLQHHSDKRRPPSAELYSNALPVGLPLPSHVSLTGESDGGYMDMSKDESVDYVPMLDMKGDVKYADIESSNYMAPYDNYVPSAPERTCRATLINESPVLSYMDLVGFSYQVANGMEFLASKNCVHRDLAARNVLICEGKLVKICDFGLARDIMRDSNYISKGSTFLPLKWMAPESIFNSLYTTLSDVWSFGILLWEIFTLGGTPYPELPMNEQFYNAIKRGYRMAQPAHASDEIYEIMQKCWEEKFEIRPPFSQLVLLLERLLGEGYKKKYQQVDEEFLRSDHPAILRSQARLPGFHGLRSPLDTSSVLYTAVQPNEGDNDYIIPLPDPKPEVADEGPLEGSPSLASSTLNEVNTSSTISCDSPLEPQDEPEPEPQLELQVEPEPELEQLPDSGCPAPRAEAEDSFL

Compound | IC50 (FGFR1) | IC50 (VEGFR2) | IC50 (PDGFRb) | IC50 (human Yes) | IC50 (EphB4)
Clc1cccc(Cl)c1CNc1cnc(Nc2ccc(OCCN3CCCC3)cc2)nc1 | 5280 nM | 907 nM | 51 nM | 40 nM | –
O=C(Nc1cnc(Nc2ccc(CCCN3CCCC3)cc2)nc1)c1c(Cl)cccc1Cl | > 10000 nM | > 10000 nM | 206 nM | 26 nM | –
O=C(Nc1cnc(Nc2ccc(OCCN3CCCC3)cc2)nc1)c1cc(O)ccc1Cl [drawing 200] | 20000 nM | 564 nM | 20 nM | 26 nM | 200 nM
O=C(Nc1cnc(Nc2cccc(OCCN3CCCC3)c2)nc1)c1cc(O)ccc1Cl [drawing 201] | 7200 nM | 1260 nM | 13 nM | 10 nM | 109 nM
O=C(Nc1cnc(Nc2cccc(OCCN3CCCC3)c2)nc1)c1c(Cl)cccc1Cl [drawing 202] | > 10000 nM | > 10000 nM | 181 nM | 8 nM | 434 nM
O=C(NCCN1CCCC1)c1ccc(Nc2ncc(NC(=O)c3cc(O)ccc3Cl)cn2)cn1 [drawing 204] | 1000 nM | 870 nM | 13 nM | 3.1 nM | 89 nM
O=C(Nc1cnc(Nc2ccc(C(=O)N3CCNCC3)cc2)nc1)c1cc(O)ccc1Cl [drawing 205] | 5400 nM | 310 nM | – | 1.9 nM | –
O=C(Nc1cnc(Nc2ccc(S(=O)(=O)CCCN3CCCC3)cc2)nc1)c1cc(O)ccc1Cl [drawing 206] | 7500 nM | 358 nM | – | 3.7 nM | –
CN1CCN(C(=O)c2ccc(Nc3ncc(NC(=O)c4cc(O)ccc4Cl)cn3)cc2)CC1 [drawing 207] | 9400 nM | 360 nM | – | 10 nM | –
O=C(NCCN1CCCC1)c1ccc(Nc2ncc(NC(=O)c3cc(O)ccc3Cl)cn2)cc1 [drawing 208] | 8200 nM | 257 nM | 6.3 nM | 4.4 nM | 59 nM
O=C(NCCN1CCCC1)c1csc(Nc2ncc(NC(=O)c3cc(O)ccc3Cl)cn2)n1 [drawing 209] | 2100 nM | 614 nM | – | 19 nM | –
CC(C)N(CCO)C(=O)c1ccc(Nc2ncc(NC(=O)c3cc(O)ccc3Cl)cn2)cc1 [drawing 210] | > 10000 nM | > 10000 nM | 138 nM | 6 nM | 190 nM
Clc1cccc(Cl)c1CNc1cnc(Nc2cccc(OCCN3CCCC3)c2)nc1 [drawing 211] | > 10000 nM | 138 nM | – | 6 nM | 190 nM
